Assay results as given in patent publication US20200206291A1, “COMPOSITION FOR PREVENTING OR TREATING OBESITY, COMPRISING SUPPLEMENT FOR REDUCING BODY FAT AND B-GLUCAN AS ACTIVE INGREDIENTS” (QUEGEN BIOTECH CO., LTD., priority 2017, published 2020).

What was measured:
Assay type in all cases: in vivo, C57BL/6 mice
[1] = Body weight of mice measured every week for 28 weeks, CLA with or without SPG (Example 1, FIG. 2); conditions: oral, weekly over 28 weeks; compared to Comparative Experimental Group 1-3 (PBS)
Method: Six-week-old wild-type C57BL/6 mice, to be subjected to body fat monitoring, were purchased, acclimated for 3 days and then raised. Schizophyllum commune-derived β-glucan (SPG with the structure of β-(1,6)-branched (1,3)-glucan; Quegen Biotech Co., Ltd.) and a phosphate buffer solution (PBS) were orally administered as test drugs in combination or independently once every day. Specifically, 0.2 mL of CLA (concentration=10 mg/mL), and after 30 minutes, 0.2 mL of Schizophyllum commnune-derived β-glucan (SPG with the structure of β-(1,6)-branched (1,3)-glucan; concentration=0.4 mg/mL) were orally administered to Experimental Group 1-1. In addition, 0.2 mL of CLA (concentration=10 mg/mL), and after 30 minutes, 0.2 mL of Schizophyllum commune-derived β-glucan (SPG with the structure of β-(1,6)-branched (1,3)-glucan; concentration=2 mg/mL) were orally administered to Experimental Group 1-2. Meanwhile, 0.2 mL of CLA (concentration=10 mg/mL) was orally administered to Comparative Experimental Group 1-1. […]
Specifically, in Experimental Groups 1-1 and 1-2 and Comparative Experimental Groups 1-1 to 1-3, the body weights of the mice were measured every week for 28 weeks after the start of administration of the test drugs, and the result is shown in FIG. 2.

[2] = Summary of the animal tests: supplement for reducing body fat and β-glucan, alone or co-administered; conditions: administered alone
Method: (§1) Six-week-old wild-type C57BL/6 mice, to be subjected to body fat monitoring, were purchased, acclimated for 3 days and then raised. Schizophyllum commune-derived β-glucan (SPG with the structure of β-(1,6)-branched (1,3)-glucan; Quegen Biotech Co., Ltd.) and a phosphate buffer solution (PBS) were orally administered as test drugs in combination or independently once every day. Specifically, 0.2 mL of CLA (concentration=10 mg/mL), and after 30 minutes, 0.2 mL of Schizophyllum commnune-derived β-glucan (SPG with the structure of β-(1,6)-branched (1,3)-glucan; concentration=0.4 mg/mL) were orally administered to Experimental Group 1-1. In addition, 0.2 mL of CLA (concentration=10 mg/mL), and after 30 minutes, 0.2 mL of Schizophyllum commune-derived β-glucan (SPG with the structure of β-(1,6)-branched (1,3)-glucan; concentration=2 mg/mL) were orally administered to Experimental Group 1-2. Meanwhile, 0.2 mL of CLA (concentration=10 mg/mL) was orally administered to Comparative Experimental Group 1-1. In addition, 0.2 mL of Schizophyllum commune-derived β-glucan (SPG with the structure of β-(1,6)-branched (1,3)-glucan; concentration=2 mg/mL) was orally administered to Comparative Experimental Group 1-2, and 0.2 mL of PBS was orally administered to Comparative Experimental Group 1-3.
(§2) Six-week-old wild-type C57BL/6 mice, to be subjected to body fat monitoring, were purchased, acclimated for 3 days and then raised. HCA (Sigma-Aldrich), Schizophyllum commune-derived β-glucan (SPG with the structure of β-(1.6)-branched (1,3)-glucan; Quegen Biotech Co., Ltd.) and a phosphate buffer solution (PBS) were orally administered as test drugs in combination or independently once every day. Specifically, 0.2 mL of HCA (concentration=10 mg/mL), and after 30 minutes, 0.2 mL of Schizophyllum commune-derived β-glucan (SPG with the structure of β-(1,6)-branched (1,3)-glucan; concentration=0.4 mg/mL) were orally administered to Experimental Group 2-1. In addition, 0.2 mL of HCA (concentration=10 mg/mL), and after 30 minutes, 0.2 mL of Schizophyllum commune-derived β-glucan (SPG with the structure of β-(1,6)-branched (1,3)-glucan; concentration=2 mg/mL) were orally administered to Experimental Group 2-2. Meanwhile, 0.2 mL of HCA (concentration=10 mg/mL) was orally administered to Comparative Experimental Group 2-1. In addition, 0.2 mL of Schizophyllum commune-derived β-glucan (SPG with the structure of 3-(1.6)-branched (1,3)-glucan:concentration=2 mg/mL) was orally administered to Comparative Experimental Group 2-2, and 0.2 mL of PBS was orally administered to Comparative Experimental Group 2-3.

[3] = Body weight of mice measured every week for 20 weeks, HCA with or without SPG (Example 2, FIG. 5); conditions: oral, weekly over 20 weeks; compared to Comparative Experimental Group 2-3 (PBS)
Method: as §2, with “In addition, 0.2 mL of Schizophyllum commune-derived β-glucan (SPG with the structure of 3-(1.6)-branched (1,3)-glucan:concentration=2 mg/mL) was orally administered to Comparative Experimental Group 2-2, and 0.2 mL of PBS was orally administered to Comparative Experimental Group 2-3.” left out
Specifically, in Experimental Groups 2-1 and 2-2 and Comparative Experimental Groups 2-1 to 2-3, the body weights of the mice were measured every week for 20 weeks after the start of administration of the test drugs, and the result is shown in FIG. 5.

[4] = Body weights and tissue weights of mice sacrificed after 20 weeks (Example 2, FIG. 6); conditions: compared to Comparative Experimental Group 2-3 (PBS)
Method: as §2
In addition, in Experimental Groups 2-1 and 2-2 and Comparative Experimental Groups 2-1 to 2-3, the mice were sacrificed after 20 weeks of administering the test drugs, and then body weights and tissue weights thereof measured, and the result is shown in FIG. 6.

[5] = Body weights and tissue weights of mice sacrificed after 28 weeks (Example 1, FIG. 3); conditions: compared to Comparative Experimental Group 1-3 (PBS)
Method: as §1
In addition, in Experimental Groups 1-1 and 1-2 and Comparative Experimental Groups 1-1 to 1-3, the mice were sacrificed after 28 weeks of administering the test drugs, and then body weights and tissue weights thereof measured, and the result is shown in FIG. 3.

[6] = Serum analysis of mice sacrificed after 28 weeks (Example 1, FIG. 4); conditions: compared to Comparative Experimental Group 1-3 (PBS)
Method: as §1
In addition, in Experimental Groups 1-1 and 1-2 and Comparative Experimental Groups 1-1 to 1-3, the mice were sacrificed after 28 weeks of administering the test drugs, and then subjected to serum analysis, and the result is shown in FIG. 4.

[7] = Serum analysis of mice sacrificed after 20 weeks (Example 2, FIG. 7); conditions: compared to Comparative Experimental Group 2-3 (PBS)
Method: as §2, with “2-3. In addition, in Experimental Groups 2-1 and 2-2 and Comparative Experimental Groups 2-1 to 2-3, the mice were sacrificed after 20 weeks of administering the test drugs, and then subjected to serum analysis, and the result is shown in FIG. 7.” for “2-3.”

| Compound | body weight as the period of administering the test drugs progressed [1] | weight loss effect [2] | body weight as the period of administering the test drugs progressed [3] | body weight at sacrifice [4] | tissue weight of each organ [4] | body weight at sacrifice [5] | tissue weight of each organ [5] | side effects (hepatotoxicity, increase in blood cholesterol level) [2] | free fatty acid content (serum) [6] | liver damage (serum analysis) [6] | total cholesterol content in blood [6] | triglyceride content (serum) [6] | tissue weight of the liver [5] | free fatty acid content (serum) [7] | liver damage (serum analysis) [7] | total cholesterol content in blood [7] | triglyceride content (serum) [7] | tissue weight of the liver [4] |
| --- | --- | --- | --- | --- | --- | --- | --- | --- | --- | --- | --- | --- | --- | --- | --- | --- | --- | --- |
| β-(1,6)-branched (1,3)-glucan [Comparative Experimental Group 1-2] | no change in body weight | does not exhibit a significant weight loss effect | no change in body weight | almost no change | almost no change | almost no change | almost no change | – | – | – | – | – | – | – | – | – | – | – |
| conjugated linoleic acid [Comparative Experimental Group 1-1] | greatly decreased in body weight | a weight loss effect caused by reduced body fat is exhibited | – | – | – | greatly decreased | greatly decreased | side effects caused by hepatotoxicity and an increase in blood cholesterol level are problematic | decreased by more than half | had liver damage | increased in total cholesterol content in blood | decreased by more than half | rather increased in tissue weight of the liver | – | – | – | – | – |
| O=C(O)CC(O)(C(=O)O)C(O)C(=O)O (stereo not drawn) [Comparative Experimental Group 2-1, hydroxycitric acid] | – | a weight loss effect caused by reduced body fat is exhibited | greatly decreased in body weight | greatly decreased | greatly decreased | – | – | side effects caused by hepatotoxicity and an increase in blood cholesterol level are problematic | – | – | – | – | – | decreased by more than half | had liver damage | increased in total cholesterol content in blood | decreased by more than half | rather increased in tissue weight of the liver |
